Measurements published in patent US8906908B2, “Hydroxybupropion analogues for treating drug dependence” (priority 2010, dated 2014).
Like-named read-outs stand apart in the source and are kept apart here.

Key:
[1] = system: Male Institute of Cancer Research (ICR) mice; assay: Tail-flick test, blockade of nicotine-induced antinociception; format: in vivo; conditions: mice, pretreatment 15 min before nicotine 2.5 mg/kg s.c., tested 5 min after nicotine; for ED50: Mus musculus, 5 min, read-out: AD50 Tail-flick
Description: (§1) Animals: Male Institute of Cancer Research (ICR) mice (weighing 20-25 g) obtained from Harlan (Indianapolis, Ind.) were used throughout the study. Animals were housed in an Association for Assessment and Accreditation of Laboratory Animal Care-approved facility, were placed in groups of six, and had free access to food and water. Studies were approved by the Institutional Animal Care and Use Committee of Virginia Commonwealth University.
Tail-Flick Test: Antinociception for pain mediated at the spinal level was assessed by the tail-flick method of D'Amour, F. E.; Smith, D. L., J. Pharmacol. Exp. Ther. 1941, 72, 74-79, incorporated herein by reference in its entirety. In brief, mice were lightly restrained while a radiant heat source was shone onto the upper portion of the tail. To minimize tissue damage, a maximum latency of 10 s was imposed. Latency to remove the tail from the heat source was recorded for each animal. […] Antinociceptive response was calculated as the percentage of maximum possible effect (% MPE), where % MPE=[(test control)/(10 control)]×100.

[2] = system: Male Institute of Cancer Research (ICR) mice; assay: Hot-plate test, blockade of nicotine-induced antinociception; format: in vivo; conditions: pretreatment 15 min before nicotine 2.5 mg/kg s.c., tested 5 min after nicotine; for ED50: Mus musculus, read-out: AD50 Hot-plate
Description: as §1
Hot-Plate Test: Mice were placed into a 10-cm wide glass cylinder on a hot plate (Thermojust Apparatus) maintained at 55° C. for assessment of pain responses mediated at supraspinal levels. To minimize tissue damage, a maximum exposure to the hot plate 40 s was imposed. Measures of control latencies (time until the animal jumped or licked its paws; typically 8-12 s) were done twice for stimuli applied at least 10 min apart for each mouse. Antinociceptive responses after test drug administrations were determined and calculated as the % MPE, where % MPE=[(test latency in s−control latency in s)/(40 s−control latency in s)×100]. Groups of 8 to 12 animals were used for each drug condition. […] The animals were then tested 5 min after administration of a subcutaneous dose of 2.5 mg/kg nicotine.

[3] = system: Male Institute of Cancer Research (ICR) mice; assay: Body temperature, antagonism of nicotine-induced hypothermia; format: in vivo; conditions: pretreatment 15 min before nicotine 2.5 mg/kg s.c., tested 30 min after nicotine
Experimental: as §1
Body Temperature: Rectal temperature was measured by a thermistor probe (inserted 24 mm) and digital thermometer (YSI Inc., Yellow Springs, Ohio). Readings were taken just before and 30 min after subcutaneous injection of either saline or 2.5 mg/kg nicotine. The difference in rectal temperature before and after treatment was calculated for each mouse. The ambient temperature of the laboratory varied from 21 to 24° C. from day to day. […] The animals were then tested 30 min after administration of a subcutaneous dose of 2.5 mg/kg nicotine.

[4] = system: Male Institute of Cancer Research (ICR) mice; assay: Locomotor activity, antagonism of nicotine effect; format: in vivo; conditions: for AD50 Locomotion: pretreatment 15 min before nicotine […] s.c.
Description: as §1
Locomotor Activity: Mice were placed into individual Omnitech photocell activity cages (28×16.5 cm; Omnitech Electronics, Columbus, Ohio) 5 min after subcutaneous administration of either 0.9% saline or nicotine (1.5 mg/kg). Interruptions of the photocell beams (two banks of eight cells each) were then recorded for the next 10 min. Data were expressed as the number of photocell interruptions.

NE transporters [h(NET)] = biological target: T1, NE transporters [h(NET)] (Homo sapiens, UniProt P23975); assay: Inhibition of [3H]norepinephrine uptake into HEK293 cells stably expressing hNET; format: cell-based; conditions: HEK293-hNET; mean ± standard error of three independent experiments; read-out: monoamine uptake inhibition IC50 [3H]NE
T1 construct: expressed in transfected cells; host or cells: HEK-293
Description: (§2) Cell Lines and Culture: Human embryonic kidney (HEK-293) cells stably expressing human DAT, NET or SERT were maintained as previously described in Eshleman, A. J.; Carmolli, M.; Cumbay, M.; Martens, C. R.; Neve, K. A.; Janowsky, A., J. Pharmacol. Exp. Ther. 1999, 289, (2), 877-885. Use was made of several human cell lines that naturally or heterologously express specific, functional, human nAChR subtypes. Cells of the TE671/RD line naturally expresses muscle-type nAChR (a1β1γδ- or α1*-nAChR), and SH-SY5Y neuroblastoma cells naturally expresses autonomic α3β4*-nAChRs (containing α3, β4, probably α5, and sometimes β2 subunits). Different clones of SH-EP1 epithelial cell lines have been engineered to heterologously express either α4β2-nAChR, which are thought to be the most abundant, high affinity nicotine-binding nAChR in mammalian brain, or α4β4-nAChR, another possible brain nAChR subtype (SH-EP1-hα4β2 or α4β4 cells, respectively). These cells were maintained as low passage number (1-26 from our frozen stocks) cultures to ensure stable expression of native or heterologously-expressed nAChR as previously described (see Lukas, R. J.; Fryer, J. D.; Eaton, J. B.; L., G. C., Some methods for studies of nicotinic acetylcholine receptor pharmacology, in Nicotinic receptors and the Nervous System, Levine, E. D., Ed. CRC Press: Boca Raton, 2002; pp 3-27, incorporated herein by reference in its entirety). Cells were passaged once weekly by splitting just-confluent cultures 1/300 (TE671/RD), 1/5 (SH-SY5Y), or 1/20 (transfected SH-EP1) in serum-supplemented medium to maintain log-phase growth.
(§3) See, for example, Damaj, M. I.; Carroll, F. I.; Eaton, J. B.; Navarro, H. A.; Blough, B. E.; Mirza, S.; Lukas, R. J.; Martin, B. R., Mol. Pharmacol. 2004, 66, (3), 675-682 and Eshleman, A. J.; Carmolli, M.; Cumbay, M.; Martens, C. R.; Neve, K. A.; Janowsky, A., J. Pharmacol. Exp. Ther. 1999, 289, (2), 877-885, both incorporated by reference herein in their entireties.

α4β4-nAChR = biological target: T2, α4β4-nAChR (Homo sapiens, UniProt P30926+P43681); assay: 86Rb+ efflux nAChR functional assay, SH-EP1-hα4β4 cells; format: cell-based; conditions: EC80-EC90 carbamylcholine, parentheses = S.E.M. as multiplication/division factor, read-out: nAChR inhibition IC50 α4β4
T2 construct: expressed in transfected cells; host or cells: SH-EP1 epithelial cells (SH-EP1-hα4β4)
Description: as §2
(§4) After cells had adhered (generally overnight, but no sooner than 4 h later), the medium was removed and replaced with 250 μL per well of complete medium supplemented with ˜350,000 cpm of ^86Rb^+ (PerkinElmer Life and Analytical Sciences, Boston, Mass.) and counted at 40% efficiency using Cerenkov counting (TriCarb 1900 liquid scintillation analyzer[…]; PerkinElmer Life Sciences).
(§5) After at least 4 h and typically overnight, ^86Rb^+ efflux was measured using the “flip-plate” technique. See Lukas, R. J.; Fryer, J. D.; Eaton, J. B.; L., G. C., Some methods for studies of nicotinic acetylcholine receptor pharmacology, in Nicotinic receptors and the Nervous System, Levine, E. D., Ed. CRC Press: Boca Raton, 2002; pp 3-27, incorporated herein by reference in its entirety). Briefly, after aspiration of the bulk of ^86Rb^+ loading medium from each well of the “cell plate,” each well containing cells was rinsed 3× with 2 mL of fresh ^86Rb^+ efflux buffer (130 mM NaCl, 5.4 mM KCl, 2 mM CaCl2, 5 mM glucose, 50 mM HEPES, pH 7.4) to remove extracellular ^86Rb^+. Following removal of residual rinse buffer by aspiration, the flip-plate technique was used again to simultaneously introduce 1.5 mL of fresh efflux buffer containing drugs of choice at indicated final concentrations from a 24-well “efflux/drug plate” into the wells of the cell plate. After a 5 min incubation, the solution was “flipped” back into the efflux/drug plate, and any remaining buffer in the cell plate was removed by aspiration. Cells remaining in the cell plate were lysed and suspended by addition of 1.5 mL of 0.1 M NaOH, 0.1% sodium dodecyl sulfate to each well.
(§6) Similarly, the sum of ^86Rb^+ in cell plates and efflux/drug plates also determined the efficiency of ^86Rb^+ loading (the percentage of applied ^86Rb^+ actually loaded into cells).
(§7) Specific efflux was then taken as the difference in control samples between total and non-specific ^86Rb^+ efflux. Any intrinsic agonist activity of test drugs was ascertained using samples containing test drug only at different concentrations and was normalized, after subtraction of non-specific efflux, to specific efflux in test drug-free, control samples.

[5] = biological target: T3, 5HT transporters [(h)SERT] (Homo sapiens, UniProt P31645); assay: Inhibition of [3H]serotonin uptake into HEK293 cells stably expressing hSERT; format: cell-based
T3 construct: expressed in transfected cells; host or cells: HEK-293
Description: as §2, §3

[6] = biological target: T4, human DA transporters [(h)DAT] (Homo sapiens, UniProt Q01959); assay: Inhibition of [3H]dopamine uptake into HEK293 cells stably expressing hDAT; format: cell-based
T4 construct: expressed in transfected cells; host or cells: HEK-293
Description: as §2, §3

[7] = biological target: T5, muscle-type nAChR (α1β1γδ- or α1*-nAChR) (Homo sapiens, UniProt P02708+P07510+P11230+Q07001); assay: 86Rb+ efflux nAChR functional assay, TE671/RD cells; format: cell-based; conditions: nAChR inhibition IC50 α1*β1, EC80-EC90 carbamylcholine, parentheses = S.E.M. as multiplication/division factor
T5 construct: Cells of the TE671/RD line naturally expresses muscle-type nAChR; endogenous in cells; host or cells: TE671/RD cells
Description: as §2, §4, §5, §6, §7

α4β2-nAChR = biological target: T6, α4β2-nAChR (Homo sapiens, UniProt P17787+P43681); assay: 86Rb+ efflux nAChR functional assay, SH-EP1-hα4β2 cells; format: cell-based; conditions: EC80-EC90 carbamylcholine; SH-EP1-hα4β2; parentheses = S.E.M. as multiplication/division factor; read-out: nAChR inhibition IC50 α4β2
T6 construct: expressed in transfected cells; host or cells: SH-EP1 epithelial cells (SH-EP1-hα4β2)
Description: as §2, §4, §5, §6, §7

T1 sequence (P23975 whole entry): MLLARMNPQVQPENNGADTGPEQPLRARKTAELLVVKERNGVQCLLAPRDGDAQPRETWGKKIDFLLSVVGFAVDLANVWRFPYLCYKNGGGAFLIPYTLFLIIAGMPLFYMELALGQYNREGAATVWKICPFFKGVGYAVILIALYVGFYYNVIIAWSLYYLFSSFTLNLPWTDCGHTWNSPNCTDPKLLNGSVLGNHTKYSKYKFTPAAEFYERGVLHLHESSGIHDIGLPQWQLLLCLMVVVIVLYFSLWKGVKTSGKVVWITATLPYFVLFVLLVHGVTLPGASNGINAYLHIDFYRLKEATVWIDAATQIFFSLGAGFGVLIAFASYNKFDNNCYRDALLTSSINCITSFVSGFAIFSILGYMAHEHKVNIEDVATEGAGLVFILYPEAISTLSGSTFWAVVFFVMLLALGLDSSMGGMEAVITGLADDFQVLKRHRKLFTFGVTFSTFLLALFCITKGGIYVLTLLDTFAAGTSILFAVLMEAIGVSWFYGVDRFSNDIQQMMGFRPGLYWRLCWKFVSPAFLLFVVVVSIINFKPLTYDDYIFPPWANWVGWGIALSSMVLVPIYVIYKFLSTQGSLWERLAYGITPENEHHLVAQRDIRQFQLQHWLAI
T5 sequence (P02708 21-457): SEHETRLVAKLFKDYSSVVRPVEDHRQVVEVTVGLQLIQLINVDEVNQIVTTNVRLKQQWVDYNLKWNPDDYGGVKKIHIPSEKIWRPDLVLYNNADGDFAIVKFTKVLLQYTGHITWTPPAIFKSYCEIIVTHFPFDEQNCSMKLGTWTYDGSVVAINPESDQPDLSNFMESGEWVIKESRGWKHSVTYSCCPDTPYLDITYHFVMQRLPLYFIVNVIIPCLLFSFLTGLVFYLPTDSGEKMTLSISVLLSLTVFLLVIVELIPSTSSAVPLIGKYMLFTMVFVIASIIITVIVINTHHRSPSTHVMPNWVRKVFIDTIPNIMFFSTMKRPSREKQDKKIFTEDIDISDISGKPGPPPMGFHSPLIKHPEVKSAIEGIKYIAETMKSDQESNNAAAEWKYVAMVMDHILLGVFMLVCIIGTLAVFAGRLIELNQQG
T5 sequence (P11230 24-501): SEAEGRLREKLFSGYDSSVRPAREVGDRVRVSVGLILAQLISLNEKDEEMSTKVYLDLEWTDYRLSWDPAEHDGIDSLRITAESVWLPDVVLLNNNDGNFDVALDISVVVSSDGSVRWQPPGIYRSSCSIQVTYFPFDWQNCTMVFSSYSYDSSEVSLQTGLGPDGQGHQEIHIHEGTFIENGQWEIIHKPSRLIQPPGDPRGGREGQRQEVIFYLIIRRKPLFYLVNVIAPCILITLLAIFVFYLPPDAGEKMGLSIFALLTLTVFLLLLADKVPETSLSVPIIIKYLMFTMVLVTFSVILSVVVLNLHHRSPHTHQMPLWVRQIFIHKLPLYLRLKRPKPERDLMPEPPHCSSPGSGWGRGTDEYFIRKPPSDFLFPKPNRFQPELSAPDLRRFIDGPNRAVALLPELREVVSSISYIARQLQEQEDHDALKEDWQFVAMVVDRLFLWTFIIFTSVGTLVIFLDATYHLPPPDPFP
T5 sequence (P07510 23-517): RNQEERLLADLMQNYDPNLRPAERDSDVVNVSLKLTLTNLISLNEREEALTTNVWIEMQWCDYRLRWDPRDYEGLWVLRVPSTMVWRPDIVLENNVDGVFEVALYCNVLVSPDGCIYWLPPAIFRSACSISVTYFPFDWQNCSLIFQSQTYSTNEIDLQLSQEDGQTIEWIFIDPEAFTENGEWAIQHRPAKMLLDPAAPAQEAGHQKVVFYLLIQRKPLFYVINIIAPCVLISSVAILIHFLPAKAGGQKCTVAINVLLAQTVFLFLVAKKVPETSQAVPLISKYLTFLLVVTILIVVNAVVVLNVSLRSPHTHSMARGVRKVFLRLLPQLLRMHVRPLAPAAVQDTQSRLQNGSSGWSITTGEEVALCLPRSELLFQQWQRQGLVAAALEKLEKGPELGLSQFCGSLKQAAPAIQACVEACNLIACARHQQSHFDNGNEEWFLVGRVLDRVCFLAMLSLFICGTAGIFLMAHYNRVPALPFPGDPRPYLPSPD
T5 sequence (Q07001 22-517): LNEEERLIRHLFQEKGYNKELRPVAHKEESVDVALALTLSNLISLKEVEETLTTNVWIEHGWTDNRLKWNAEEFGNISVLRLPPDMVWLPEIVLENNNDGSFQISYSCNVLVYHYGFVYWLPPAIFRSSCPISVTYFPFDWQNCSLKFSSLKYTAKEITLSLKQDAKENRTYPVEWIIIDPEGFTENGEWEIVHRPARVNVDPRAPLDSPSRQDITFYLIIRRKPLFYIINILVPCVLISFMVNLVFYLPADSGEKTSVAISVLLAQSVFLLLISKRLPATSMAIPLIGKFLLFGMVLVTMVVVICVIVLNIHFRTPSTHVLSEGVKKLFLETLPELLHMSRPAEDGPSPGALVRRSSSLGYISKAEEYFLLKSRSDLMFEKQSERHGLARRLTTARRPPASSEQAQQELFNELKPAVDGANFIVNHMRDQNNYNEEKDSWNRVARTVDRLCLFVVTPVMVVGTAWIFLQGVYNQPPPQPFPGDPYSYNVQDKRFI
T3 sequence (P31645 whole entry): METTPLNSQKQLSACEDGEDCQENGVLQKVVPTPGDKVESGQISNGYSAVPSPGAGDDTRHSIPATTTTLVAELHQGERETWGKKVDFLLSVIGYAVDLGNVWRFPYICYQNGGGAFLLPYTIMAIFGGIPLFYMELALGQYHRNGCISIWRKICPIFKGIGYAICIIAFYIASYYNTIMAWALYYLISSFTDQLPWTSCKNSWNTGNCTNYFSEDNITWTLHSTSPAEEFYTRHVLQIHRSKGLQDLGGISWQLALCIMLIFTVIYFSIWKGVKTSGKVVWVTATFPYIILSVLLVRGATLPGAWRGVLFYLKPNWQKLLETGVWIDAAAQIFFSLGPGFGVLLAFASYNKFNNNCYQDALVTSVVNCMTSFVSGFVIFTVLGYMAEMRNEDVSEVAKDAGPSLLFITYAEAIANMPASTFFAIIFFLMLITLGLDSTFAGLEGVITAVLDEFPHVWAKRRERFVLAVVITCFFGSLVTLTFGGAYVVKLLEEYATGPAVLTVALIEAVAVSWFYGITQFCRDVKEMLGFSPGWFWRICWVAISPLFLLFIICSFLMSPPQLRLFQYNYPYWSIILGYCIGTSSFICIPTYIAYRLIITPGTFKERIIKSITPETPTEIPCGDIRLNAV
T4 sequence (Q01959 whole entry): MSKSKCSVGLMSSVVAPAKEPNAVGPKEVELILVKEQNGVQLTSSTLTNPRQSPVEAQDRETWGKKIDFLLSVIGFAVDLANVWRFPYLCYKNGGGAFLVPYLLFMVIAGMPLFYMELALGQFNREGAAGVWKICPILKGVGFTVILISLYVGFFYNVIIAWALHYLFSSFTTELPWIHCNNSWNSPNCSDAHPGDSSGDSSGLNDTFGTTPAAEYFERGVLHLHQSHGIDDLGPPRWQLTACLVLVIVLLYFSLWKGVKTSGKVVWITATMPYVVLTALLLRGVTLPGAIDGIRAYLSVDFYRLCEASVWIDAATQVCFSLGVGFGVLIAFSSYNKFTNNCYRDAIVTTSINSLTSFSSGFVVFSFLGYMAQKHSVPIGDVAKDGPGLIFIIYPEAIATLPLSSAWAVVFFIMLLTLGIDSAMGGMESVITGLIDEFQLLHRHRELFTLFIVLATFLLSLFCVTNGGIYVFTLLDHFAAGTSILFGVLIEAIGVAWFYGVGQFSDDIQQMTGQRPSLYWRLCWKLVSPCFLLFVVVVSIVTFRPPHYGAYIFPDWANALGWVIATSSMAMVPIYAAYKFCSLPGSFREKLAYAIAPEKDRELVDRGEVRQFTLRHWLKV
T6 sequence (P43681 29-627 limits assumed): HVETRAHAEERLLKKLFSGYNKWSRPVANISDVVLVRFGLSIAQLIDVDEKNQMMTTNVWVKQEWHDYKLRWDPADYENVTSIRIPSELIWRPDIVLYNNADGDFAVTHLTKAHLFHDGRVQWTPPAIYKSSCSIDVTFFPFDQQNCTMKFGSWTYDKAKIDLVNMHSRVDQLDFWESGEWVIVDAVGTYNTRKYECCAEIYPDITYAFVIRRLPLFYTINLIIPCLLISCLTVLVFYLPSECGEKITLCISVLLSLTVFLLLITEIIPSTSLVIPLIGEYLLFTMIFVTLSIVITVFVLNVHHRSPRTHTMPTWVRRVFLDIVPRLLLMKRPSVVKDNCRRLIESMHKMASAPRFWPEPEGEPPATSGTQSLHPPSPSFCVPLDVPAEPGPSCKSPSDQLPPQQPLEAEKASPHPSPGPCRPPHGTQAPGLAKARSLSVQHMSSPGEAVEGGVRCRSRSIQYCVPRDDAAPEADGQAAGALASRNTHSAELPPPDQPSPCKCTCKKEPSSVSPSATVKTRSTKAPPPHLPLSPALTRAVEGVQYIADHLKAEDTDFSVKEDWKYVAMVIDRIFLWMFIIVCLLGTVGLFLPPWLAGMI
T6 sequence (P17787 26-502): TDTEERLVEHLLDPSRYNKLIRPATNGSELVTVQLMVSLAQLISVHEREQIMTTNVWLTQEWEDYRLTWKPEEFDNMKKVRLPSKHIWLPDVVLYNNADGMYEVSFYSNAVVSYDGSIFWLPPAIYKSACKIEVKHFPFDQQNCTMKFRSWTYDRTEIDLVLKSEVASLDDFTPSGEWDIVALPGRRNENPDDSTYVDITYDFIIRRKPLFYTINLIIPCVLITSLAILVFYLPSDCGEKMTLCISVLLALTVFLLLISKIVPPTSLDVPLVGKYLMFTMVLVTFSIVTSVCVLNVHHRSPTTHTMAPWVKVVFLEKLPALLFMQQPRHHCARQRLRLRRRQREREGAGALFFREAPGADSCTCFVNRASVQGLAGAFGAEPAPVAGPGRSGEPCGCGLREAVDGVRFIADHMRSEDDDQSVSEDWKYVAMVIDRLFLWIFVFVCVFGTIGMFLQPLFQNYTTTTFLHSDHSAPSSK

Row | SMILES | ED50 [1] | ED50 [2] | AD50 Hypothermia [3] | AD50 Locomotion [4] | AD50 Hot-plate [2] | IC50 (NE transporters [h(NET)]) | IC50 (α4β4-nAChR) | IC50 [7] | IC50 (α4β2-nAChR) | also measured
1 | C[C@H]1NC(C)(C)CO[C@]1(O)c1cccc(Cl)c1 [Compound (2R,3R)-4a, (2R,3R)-2-(3-Chlorophenyl)-3,5,5-trimethylmorpholin-2-ol, reference compound] | 2.5 mg/kg | 10.3 mg/kg | IA (IA: AD50 > 15 mg/kg) | IA (IA: AD50 > 15 mg/kg) |  |  |  |  |  | 
2 | CC(NC(C)(C)C)C(=O)c1cccc(Cl)c1 (racemic) [Compound 2, (±)-2-tert-butylamino-3′-chloropropiophenone, reference compound] | 1.2 mg/kg | 15 mg/kg | 9.2 mg/kg |  | 15 mg/kg |  |  |  |  | AD50 Tail-flick [1]: 1.2 mg/kg; ED50 ([3]; Mus musculus, 0.5 h, read-out: AD50 Hypothermia): 9.2 mg/kg
3 | CCC[C@@H]1NC(C)(C)CO[C@@]1(O)c1cccc(Cl)c1 [Compound 4t, (2S,3S)-2-(3-Chlorophenyl)-5,5-dimethyl-3-propyl-morpholin-2-ol] | 0.004 mg/kg |  | IA (IA: AD50 > 15 mg/kg) | 4.7 mg/kg | IA (IA: AD50 > 15 mg/kg) |  |  |  |  | 
4 | CC1NC(C)(C)COC1(O)c1cccnc1 (racemic) [Compound 5, 3,5,5-Trimethyl-2-(pyridin-3-yl)morpholin-2-ol] |  |  |  |  |  | > 10 µM | > 100 µM | > 100 µM | > 100 µM | IC50 [5]: > 10 µM; IC50 ([6]; HEK293-hDAT, mean ± standard error of three independent experiments, read-out: monoamine uptake inhibition IC50 [3H]DA): > 10 µM
5 | CC1NC(C)(C)COC1(O)c1ccccn1 (racemic) [Compound 6, 3,5,5-Trimethyl-2-(pyridin-2-yl)morpholin-2-ol] |  |  |  |  |  | 7.95 ± 1.8 µM | > 100 µM | > 100 µM | > 100 µM | IC50 ([5]; HEK293-hSERT, mean ± standard error of three independent experiments, read-out: monoamine uptake inhibition IC50 [3H]5HT): > 10 µM; IC50 [6]: > 10 µM
6 | C[C@@H]1NC(C)(C)CO[C@@]1(O)c1cccc(Cl)c1 [Compound (2S,3S)-4a, (2S,3S)-2-(3-Chlorophenyl)-3,5,5-trimethylmorpholin-2-ol, reference compound] | 0.2 mg/kg | 1 mg/kg |  | 0.9 mg/kg | 1 mg/kg |  |  |  |  | ED50 ([4]; Mus musculus, pretreatment 15 min before nicotine 1.5 mg/kg s.c., read-out: AD50 Locomotion): 0.9 mg/kg
